# Measured values as given in publication PMC12040169 (PLOS Biology, 2025).
# Experiment: in vitro
# Settings: human, hela cells, % viability
row,Structure (SMILES),"viability at 28.5 h, 10 µM [%]"
1,S=c1[nH]cnc2scc(-c3ccc(Cl)cc3)c12 [CBK094069],76.5
2,Cc1ccc(S(=O)(=O)NCCc2nc3ccccc3n2C)s1 [CBK281398],81.5
3,CC(=O)Nc1ccc(S(=O)(=O)N2CCCCC2C(=O)O)cc1 (stereo not shown) [CBK265241],102
4,CC(=O)N1CCc2ccc(NC(=O)c3cncc(-c4ccc(C(=O)N5CCOCC5)cc4)c3)cc21 [CBK160217],77.8
5,O=C1C2C(c3ccccc3)NC(c3ccccc3)C1C(c1ccccc1)NC2c1ccccc1 (stereo not shown) [CBK260981],93
6,CC(C)Oc1ccc(CCNC(=N)NC(=N)N)cc1Cl [CBK263966],91.5
7,COc1ccc(C2CCN(Cc3cccnc3)CC2)cc1 [CBK283564],96.1
8,CS(=O)(=O)N1CCc2cc(C(=O)Cn3nc(C(=O)O)c4ccccc4c3=O)ccc21 [CBK297000],80.4
9,CCOc1ccccc1N1CCN(C(=O)c2cc(-c3ccccc3C)nc3ccccc23)CC1 [CBK091950],104
10,Cc1nnc(SCC(=O)N/N=C/c2ccc(-c3ccc(Br)cc3)o2)n1-c1ccccc1 [CBK262769],104
11,O=C(CSc1oc(-c2ccco2)nc1S(=O)(=O)c1ccccc1)c1ccccc1 [CBK268424],96.9
12,O=C(CCc1ccccc1)NC(=S)Nc1ccc(-c2nc3ccccc3[nH]2)cc1 [CBK267472],77.1
13,CC(=O)c1ccc(NC(=O)C2C3C=CC(C3=C(c3ccccc3)c3ccccc3)C2C(=O)O)cc1 (stereo not shown) [CBK265696],98.4
14,Cc1ccc(C(=O)N2CN(C(=O)CNC3CC3)CC2(C)C)cc1 [CBK089574C],98.4
15,C=CCn1cc(CN2CCc3nc(C)[nH]c(=O)c3C2)c2ccccc21 [CBK282376],85.9
16,CC(=O)OCc1ccc(CN2CCCCCC2c2cc(C)on2)o1 (stereo not shown) [CBK283004],88.2
17,CN(C)CCN1CCN(c2nc(-c3ccc4[nH]ccc4c3)cn3ccnc23)CC1 [CBK036587],102
18,CCCCC(O)(Cc1onc(-c2ccccc2)c1C(=O)N(C)C)c1ccc(CN2CCCC2)cc1 (stereo not shown) [CBK034415T],113
19,O=C(Cc1ccc(F)cc1)N1CCOC(Cn2ccnc2)C1 (stereo not shown) [CBK282875],91
20,O=C(CN1CCC(Oc2nccnc2OCc2ccc(Cl)c(Cl)c2)CC1)Nc1ccccc1 [CBK153783],110
21,CCc1c(C(=O)NCc2cccnc2-n2cncn2)cnn1-c1ccc(OC)nn1 [CBK298309],90.5
22,COC(=O)Nc1ccc(S(=O)(=O)N2CCCCC2C(=O)O)cc1 (stereo not shown) [CBK058086],106

row,Structure (SMILES),"viability at 28.5 h, 10 µM [%]"
1,COc1ccc(Cl)cc1CN(C)C(=O)c1ccc[nH]c1=O [CBK305933],90.6
2,COCCNC(=O)c1ccc(-c2cccc(Cl)c2Cl)nc1N(C)C [CBK106057],89.4
3,COCCCNCCn1cnc2c(N)ncnc21 [CBK277059],88.9
4,Clc1ccc(Nc2cncc(-c3cccnc3)n2)cc1 [CBK065234],105
5,Cc1ccc(CNC(=O)c2ccc3c(c2)nc(N2CC[C@H](O)C2)n3C)s1 [CBK306837],90.9
6,Cc1ccc2[nH]cc(CCN3CCC4(CC3)NCCc3c4[nH]c4ccc(OCc5ccccc5)cc34)c2c1 [CBK039342],91.8
7,CCOc1ccc(S(=O)(=O)N2CCC(C(=O)N3CCN(C)CC3)CC2)cc1 [CBK270075],88.8
8,O=C(CSc1nnnn1-c1ccc(O)cc1)NC1CCCC1 [CBK295659],90.6
9,CC(NC(=O)COc1ccc(Cl)cc1Cl)C(=O)O (stereo not shown) [CBK261425],91.2
10,O=C(CN1CCOCC1)N1CCN(C(=O)c2ccco2)CC1 [CBK144478],99.2
11,CCOC(=O)CN1CCN(c2cc(C#N)ccn2)CC1 [CBK306006],89.3
12,Cc1nc2c3c(sc2c(=O)[nH]1)NC(=O)CC3c1ccccc1 (stereo not shown) [CBK288094],93.1
13,CCN(CC)S(=O)(=O)c1ccc(C)c(C(=O)Oc2cccc(-c3cnc4ccccc4n3)c2)c1 [CBK264577],85.8
14,COc1ccc2cc(C(=O)N3CCc4[nH]c(=O)c(C#N)cc4C3)[nH]c2c1 [CBK304622],87.8
15,CNC(=O)c1ccc(-c2cc(OC)c(OC)c(OC)c2)nc1NCC1CC1 [CBK106312],101
16,Cc1cc2ccccc2n2c(=O)n(CC(=O)N3CCCC3)nc12 [CBK283880],101
17,COc1ncc(-c2nccnc2OCCOc2ccccc2)c(OC)n1 [CBK106752],91.1
18,CCCC(=O)c1ccc(S(=O)(=O)N2CCN(Cc3csc(-c4ccccc4)n3)CC2)cc1 [CBK063161],93.3
19,CC(C)(C)c1ccnc(N[C@H]2CO[C@H]3[C@@H]2OC[C@@H]3NC(=O)NCc2ccccc2)n1 [CBK289522],87.3
20,COc1ccc(-c2ccc(N3CCN(CCN(C)C)CC3)nc2)cc1OC [CBK036818],98.2
21,CCS(=O)(=O)Nc1cc(N2CCNCC2)c2occc2c1 [CBK059429C],118
22,N#CCCSc1ccn(C2CC(O)C(CO)O2)c(=O)n1 (stereo not shown) [CBK201261],97.9

row,Structure (SMILES),"viability at 28.5 h, 10 µM [%]"
1,COc1ccccc1-c1nccnc1NCc1cccs1 [CBK088682],88
2,O=S(=O)(c1c(Cl)cc(C(F)(F)F)cc1Cl)N1CCOCC1 [CBK057736],88.8
3,CNC(=O)c1cc(-c2cccc(C)c2)oc1C [CBK047432],80.3
4,CN(C)CCN(C)c1nc(-c2ccc(F)c(Cl)c2)cn2ccnc12 [CBK038007],95.7
5,CN(Cc1ccccc1)C(=O)c1c[nH]nc1C1CCCN(Cc2cccc(Cl)c2)C1 (stereo not shown) [CBK286490],91
6,Clc1cccc(-c2cc(NCc3cccs3)n3nccc3n2)c1 [CBK037238],105
7,O=C(CCCc1c[nH]c2ccccc12)Nc1cccc(C(=O)O)c1 [CBK287175],104
8,C=CCn1c(SCC(=O)Nc2ccnc3ccccc23)nnc1-c1cccnc1 [CBK268723],88.6
9,CN1CCOc2ccccc2C(=O)NC/C=C/CC2(CCCNC2)C1=O (stereo not shown) [CBK292027],107
10,CCn1c(=O)c(C(=O)NCCN2CCCCC2)c(O)c2ccccc21 [CBK261432C],97.7
11,CCOC(=O)c1c(C#N)c(SCc2ccc(Cl)cc2)nc2c1CN(CC)CC2 [CBK021337],90.9
12,O=C(COc1ccc2oc3c(c2c1)CCCC3)Nc1ccncc1 [CBK266227],100
13,CCN(CCc1nc2cc(OC)ccc2[nH]1)C(=O)c1ccc(=O)n(C)n1 [CBK307712],108
14,Fc1ccc(-c2cn(-c3ccc4c(c3)CCO4)nn2)cc1 [CBK113132],97
15,COc1cccc(N2CCC(=O)N2)c1 [CBK087441],87
16,Cc1nn(Cc2ccc(C(=O)N3CCN(Cc4ccccc4)CC3)o2)c(C)c1Br [CBK265796C],88.8
17,O=S(=O)(NCc1ccc(C(F)(F)F)c(F)c1)c1cccc2nsnc12 [CBK062113],94.3
18,COc1ccc(CN2CC(C(=O)O)CC2=O)cc1 (stereo not shown) [CBK267242],96.4
19,O=C(O)c1ccc(OCC(O)Cn2nnc3ccccc32)cc1 (stereo not shown) [CBK286616],103
20,CC1CCCN(CC(O)c2ccc3c(c2)CCCN3C(=O)C2CC2)C1 (stereo not shown) [CBK282136],100
21,COc1ccc(C(=O)C2=C(O)C(=O)N(CCN(C)C)C2c2ccncc2)c(C)c1 (stereo not shown) [CBK264867],92.5
22,Cc1nn(-c2ccc(F)cc2)c2[nH]c(=O)c(CNC(C)(C)C)cc12 [CBK283120],102

row,Structure (SMILES),"viability at 28.5 h, 10 µM [%]"
1,COCCCn1c(CCC(=O)O)ccc1-c1ccc(F)cc1 [CBK267886],104
2,COc1ccc(C(C)c2cc3c(cc2OCC(=O)O)OCO3)cc1 (stereo not shown) [CBK200108],87.4
3,Cc1cc(C)c(OCCOCCN2CCN(C)CC2)c(Cl)c1 [CBK263744G],98.6
4,COc1ccc(CSc2nc(N)c3c4c(sc3n2)CCCC4)cc1 [CBK131876],85.8
5,Cc1c(C(=O)C2=C(O)C(=O)N(CCN3CCOCC3)C2c2ccccn2)cnn1-c1ccccc1 (stereo not shown) [CBK266493],112
6,O=C(C1CCC1)N1C2CCC1CC(O)(c1ccc(F)cc1)C2 (stereo not shown) [CBK283547],92.5
7,O=S(=O)(c1ccc(F)c(Cl)c1)n1ccc2c(N3CCNCC3)nccc21 [CBK059059C],90.7
8,O=C(O)c1cccc(NS(=O)(=O)c2ccc(OC(F)(F)F)cc2)c1 [CBK155077],92.7
9,CCOc1cc(/C=C2\SC(=N)NC2=O)cc(Cl)c1O [CBK262955],84.4
10,Cc1nccn1CC1(O)CCN(C(=O)C(C)c2ccccc2)CC1 (stereo not shown) [CBK285388],104
11,O=C1N[C@@H](Cc2ccc(F)cc2)C(=O)N2CCN(C(=O)c3cccc(F)c3)C[C@H]12 [CBK289600],111
12,CCOc1ccc(C(=O)N2CC(C(N)=O)CCC2C)cn1 (stereo not shown) [CBK305770],102
13,Cc1ccc(-c2ccc(/C=C/c3cc(C(F)(F)F)nc(=O)[nH]3)o2)cc1Cl [CBK018169],103
14,Cc1cccn2c(=O)cc(CN3CCc4c(nc(C5CC5)n4C)C3)nc12 [CBK305256],99.2
15,CCc1nn2c(O)cc(C)nc2c1-c1cccs1 [CBK283860],90.7
16,CC(NC(=O)CSc1ncc(-c2ccccc2)nn1)c1ccccc1 (stereo not shown) [CBK267514],85.7
17,CC(C)(C)OC(=O)N[C@@H](Cc1ccccc1)C(=O)NC[C@H]1CC[C@H](C(=O)O)CC1 [CBK286719],81.9
18,CN1CCCc2cc(CN3CCC4(CCCNC4=O)CC3)ccc21 [CBK284876],101
19,O=C(O)CCC(=O)N1CCCC2(CCN(C(=O)Cc3c[nH]c4ccccc34)C2)C1 (stereo not shown) [CBK131572],91.2

# Same assay, conditions: human, hela cells, % viability, bulk resorufin, single well
row,Structure (SMILES),"viability at 28.5 h, 10 µM [%]"
1,O=C(O)CCC(=O)OC1N=C(c2ccccc2Cl)c2cc(Br)ccc2NC1=O (stereo not shown) [CBK263076],85.2
2,Cc1ccc(Cn2nc(NC(=O)Oc3ccccc3)c3ccccc32)cc1 [CBK048407],84.2
3,Cc1ccc(Cn2nc(C(=O)NCc3ccncc3)c3ccccc32)cc1 [CBK047832],82.7
